Article PMC9169098 (Proceedings of the National Academy of Sciences of the …, 2022)
Values belong to the molecule of their own block, whether it stands above or below them.

Assays:
[1] = biological target: T1, BceAB (ATPase sites of BceA) (Bacillus subtilis, UniProt O34697); test: colorimetric phosphate-release ATPase assay; format: biochemical; details: ATP substrate, 4 mM MgCl2, 37 °C, inhibitor
T1 sequence (O34697 1-253 limits assumed): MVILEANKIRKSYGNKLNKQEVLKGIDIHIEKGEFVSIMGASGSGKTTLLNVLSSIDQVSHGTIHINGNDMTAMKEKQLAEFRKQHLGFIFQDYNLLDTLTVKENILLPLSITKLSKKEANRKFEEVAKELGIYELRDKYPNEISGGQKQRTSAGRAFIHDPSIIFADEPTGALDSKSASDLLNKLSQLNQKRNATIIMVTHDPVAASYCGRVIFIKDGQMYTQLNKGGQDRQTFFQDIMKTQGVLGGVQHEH
T1 sequence (O34741 1-646 partner): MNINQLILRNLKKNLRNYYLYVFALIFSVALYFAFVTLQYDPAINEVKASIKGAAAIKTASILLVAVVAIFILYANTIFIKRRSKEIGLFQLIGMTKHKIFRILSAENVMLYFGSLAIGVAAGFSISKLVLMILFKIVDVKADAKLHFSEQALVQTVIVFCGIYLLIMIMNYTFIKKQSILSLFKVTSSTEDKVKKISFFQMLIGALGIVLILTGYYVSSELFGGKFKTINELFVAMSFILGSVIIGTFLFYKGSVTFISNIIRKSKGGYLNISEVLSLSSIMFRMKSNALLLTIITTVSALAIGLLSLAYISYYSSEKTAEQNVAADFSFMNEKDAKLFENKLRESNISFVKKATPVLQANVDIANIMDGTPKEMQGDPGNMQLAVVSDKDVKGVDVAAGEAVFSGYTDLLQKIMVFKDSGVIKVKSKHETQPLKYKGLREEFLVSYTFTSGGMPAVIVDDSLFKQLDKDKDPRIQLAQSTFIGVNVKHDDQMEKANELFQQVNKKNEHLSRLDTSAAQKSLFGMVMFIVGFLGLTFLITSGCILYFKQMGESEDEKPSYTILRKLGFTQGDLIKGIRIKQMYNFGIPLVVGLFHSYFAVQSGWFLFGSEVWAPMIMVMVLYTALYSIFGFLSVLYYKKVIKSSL

BceB = biological target: T2, BceB (B. subtilis, UniProt O34741 1-646); test: cryo-EM structure
T2 sequence (looked up): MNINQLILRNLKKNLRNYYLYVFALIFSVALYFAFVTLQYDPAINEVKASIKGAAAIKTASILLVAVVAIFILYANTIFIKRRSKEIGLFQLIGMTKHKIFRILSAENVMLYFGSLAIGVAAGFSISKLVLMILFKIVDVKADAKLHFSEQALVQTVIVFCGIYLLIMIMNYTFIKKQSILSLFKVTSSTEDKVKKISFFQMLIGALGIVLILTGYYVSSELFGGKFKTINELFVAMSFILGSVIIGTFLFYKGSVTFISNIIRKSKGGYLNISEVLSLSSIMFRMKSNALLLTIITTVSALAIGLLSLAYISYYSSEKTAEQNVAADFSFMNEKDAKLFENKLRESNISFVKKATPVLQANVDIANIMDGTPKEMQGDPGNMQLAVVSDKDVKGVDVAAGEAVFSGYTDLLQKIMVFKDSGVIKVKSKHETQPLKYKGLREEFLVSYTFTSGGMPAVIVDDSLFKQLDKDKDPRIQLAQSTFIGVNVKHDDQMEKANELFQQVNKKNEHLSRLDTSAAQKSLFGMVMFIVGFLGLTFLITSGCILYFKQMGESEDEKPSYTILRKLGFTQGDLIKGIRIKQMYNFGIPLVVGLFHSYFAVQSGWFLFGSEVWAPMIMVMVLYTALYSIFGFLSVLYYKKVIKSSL

cryo-EM structure = biological target: the molecule itself; test: cryo-EM structure

Molecule: Nc1ncnc2c1ncn2[C@@H]1O[C@H](COP(=O)(O)OP(=O)(O)OP(O)(O)=S)[C@@H](O)[C@H]1O [ATPγS]
colorimetric phosphate-release ATPase assay ([1]; substrate analog): potently inhibited by common ATPase inhibitors such as the substrate analog ATP? S

Molecule: [O]=[V]([OH])([OH])[OH] [sodium ortho-vanadate]
colorimetric phosphate-release ATPase assay [1]: potently inhibited by common ATPase inhibitors such as the substrate analog ATP? S or sodium ortho-vanadate

stoichiometry N (BceB): 2 BceA per BceB
B1: BceA (natural protein, B. subtilis, UniProt O34697 1-253, looked up)
chain: MVILEANKIRKSYGNKLNKQEVLKGIDIHIEKGEFVSIMGASGSGKTTLLNVLSSIDQVSHGTIHINGNDMTAMKEKQLAEFRKQHLGFIFQDYNLLDTLTVKENILLPLSITKLSKKEANRKFEEVAKELGIYELRDKYPNEISGGQKQRTSAGRAFIHDPSIIFADEPTGALDSKSASDLLNKLSQLNQKRNATIIMVTHDPVAASYCGRVIFIKDGQMYTQLNKGGQDRQTFFQDIMKTQGVLGGVQHEH

B2: BceA E169Q variant (natural protein, B. subtilis, UniProt O34697 1-253, looked up)
chain: MVILEANKIRKSYGNKLNKQEVLKGIDIHIEKGEFVSIMGASGSGKTTLLNVLSSIDQVSHGTIHINGNDMTAMKEKQLAEFRKQHLGFIFQDYNLLDTLTVKENILLPLSITKLSKKEANRKFEEVAKELGIYELRDKYPNEISGGQKQRTSAGRAFIHDPSIIFADQPTGALDSKSASDLLNKLSQLNQKRNATIIMVTHDPVAASYCGRVIFIKDGQMYTQLNKGGQDRQTFFQDIMKTQGVLGGVQHEH
stoichiometry N (cryo-EM structure): 2
